This note sets out measurements from publication PMC12263422, “Cryo-EM structure of the human THIK-1 K2P K^+ channel reveals a lower Y gate regulated by lipids and anesthetics” (Nature Structural & Molecular Biology, 2025).

Test [1] deals with T1, THIK-1 G331x (Homo sapiens, UniProt Q9HB14).
T1 construct: expressed in transfected cells; host or cells: Xenopus oocytes (mRNA injection)
T1 sequence (Q9HB14 1-330 limits assumed): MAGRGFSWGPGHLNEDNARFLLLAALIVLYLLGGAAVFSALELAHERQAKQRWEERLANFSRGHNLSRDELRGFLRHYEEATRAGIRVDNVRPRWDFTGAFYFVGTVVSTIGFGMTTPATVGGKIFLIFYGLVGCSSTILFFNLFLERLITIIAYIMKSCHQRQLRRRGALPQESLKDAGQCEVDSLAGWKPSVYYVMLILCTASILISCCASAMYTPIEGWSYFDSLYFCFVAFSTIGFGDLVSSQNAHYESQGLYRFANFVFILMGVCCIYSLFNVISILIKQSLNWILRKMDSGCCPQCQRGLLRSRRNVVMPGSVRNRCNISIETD
As to the kind of experiment: Inside-out excised patch recordings, oocytes, THIK-1 truncated at CASP8 cleavage site (G331x). In kind it is cell-based. The source says:
(§1) Human K2P13.1 THIK-1 (GenBank accession number: NM_022054) and human K2P12.1 THIK-2 (NM_022055.1) were used in this study. For functional expression studies, the respective K^+ channel subtype coding sequences were subcloned into the oocyte expression vector pSGEM or the dual-purpose expression vector pFAW[41] and verified by sequencing. All mutant channels were obtained by site-directed mutagenesis and verified by sequencing. To increase surface expression and macroscopic currents, measurements of THIK-2 channels used a mutated ER retention motif, (R11A R12A R14A R15A R16A; THIK-2*)[20]. Vector DNA was linearized with NheI or MluI, and mRNA was synthesized in vitro using the SP6 or T7 AmpliCap Max High Yield Message Maker Kit (Cellscript, USA) or HiScribe T7 ARCA mRNA Kit (New England Biolabs).
(§2) Two-electrode voltage–clamp (TEVC) studies were performed in Xenopus oocytes. All animal use conformed to the Guide for the Care and Use of Laboratory Animals (NIH Publication 85–23), and all experiments using Xenopus toads were approved by the local ethics panels. Oocytes were stored at 17 °C in ND96 recording solution composed of (in mM): 96 NaCl, 2 KCl, 1.8 CaCl2, 1 MgCl2, 5 HEPES (pH 7.5 adjusted with NaOH and HCl), supplemented with Na-pyruvate (275 mg L^–1), theophylline (90 mg L^–1) and gentamicin (50 mg L^–1). Oocytes were injected with 1 ng mRNA for WT or mutant channels, and were incubated for 24–48 h at 17 °C. Two-electrode voltage clamp recordings were then performed as previously described[42],[43]. For macroscopic patch–clamp measurements, oocytes were obtained as described above incubated at 17 °C in a solution containing (mM): 54 NaCl, 30 KCl, 2.4 NaHCO3, 0.82 MgSO4 ×7 H2O, 0.41 CaCl2, 0.33 Ca(NO3)2 ×4 H2O and 7.5 TRIS (pH 7.4 adjusted with NaOH and HCl) for 1–4 days before use. Excised patch recordings in inside-out configuration conditions were performed at room temperature. Patch pipettes were made from thick-walled borosilicate glass GB 200TF-8P (Science Products), had resistances of 0.2–0.5 MΩ (tip diameter, 10–25 µm) and filled with a pipette solution (in mM): 120 KCl, 10 HEPES and 3.6 CaCl2 (pH 7.4 adjusted with KOH and HCl). Intracellular bath solutions and compounds were applied to the cytoplasmic side of excised patches for the various K^+ channels through a gravity flow multi-barrel pipette system. The intracellular solution had the following composition (in mM): 120 KCl, 10 HEPES, 2 EGTA and 1 pyrophosphate (pH adjusted with KOH and HCl). Currents were recorded with an EPC10 amplifier (HEKA Electronics) and sampled at 10 kHz or higher, with filtering set to 3 kHz (–3 dB) or higher, as appropriate for sampling rate. For measurements of GPCR activation, whole-cell currents were recorded for THIK-1 in transiently transfected HEK-293 cells. Cells were stimulated by a ramp protocol between −100 and +60 mV (holding potential, −80 mV). The pipette solution was composed of (in mM): 140 KCl, 2 MgCl2, 1 CaCl2, 2.5 EGTA and 10 HEPES (pH 7.3 adjusted with KOH and HCl). The extracellular bath solution had the following composition (in mM): 135 NaCl, 5 KCl, 2 MgCl2, 2 CaCl2, 10 glucose and 10 HEPES pH (pH 7.3 adjusted with NaOH and HCl). Oxotremorine M (Oxo-M) was added to extracellular bath solution to obtain the final concentration. Single-channel currents were recorded with an Axopatch 200B amplifier through a Digidata 1440A digitizer (Molecular Devices). Data were filtered at 2 kHz and recorded at a 200-kHz sampling rate with the program Clampex (Molecular Devices). Pipette solution and bath solution for cell-attached recordings contained (in mM): 140 KCl, 2 MgCl2, 1 CaCl2 and 10 HEPES (pH 7.4 adjusted with KOH and HCl). For inside-out recordings, the bath solution contained (in mM): 140 KCl, 2 MgCl2, 1 CaCl2 and 10 HEPES (pH 7.2 adjusted with KOH and HCl). All experiments were conducted at room temperature. […]

Test [2] addresses T2, THIK-1 F262A (Homo sapiens, UniProt Q9HB14, F262A).
T2 construct: expressed in transfected cells; host or cells: Xenopus oocytes (mRNA injection)
T2 sequence (Q9HB14 1-408 F262A): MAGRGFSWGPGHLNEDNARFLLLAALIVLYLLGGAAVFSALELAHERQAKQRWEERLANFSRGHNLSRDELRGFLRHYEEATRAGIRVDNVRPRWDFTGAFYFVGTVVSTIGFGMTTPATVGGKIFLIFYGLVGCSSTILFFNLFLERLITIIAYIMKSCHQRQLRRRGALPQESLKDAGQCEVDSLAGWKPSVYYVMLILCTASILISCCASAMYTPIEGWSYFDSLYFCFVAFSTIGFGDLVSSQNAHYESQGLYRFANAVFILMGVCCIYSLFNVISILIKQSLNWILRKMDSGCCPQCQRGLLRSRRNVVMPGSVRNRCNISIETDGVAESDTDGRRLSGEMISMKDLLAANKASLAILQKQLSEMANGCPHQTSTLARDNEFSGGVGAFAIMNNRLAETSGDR
Briefly: Inside-out excised patch recordings, oocytes, THIK-1 F262A mutant (lipid activation). In kind it is cell-based. The conditions noted are these: for pEC50: Linoleic acid EC50, THIK-1 F262A; for Normalized currents / Fold activation with 30.0 µM linoleic acid: THIK-1 F262A.
From the text: as §1, §2

pEC50: −log10 of the molar value. Several values for one entry are separate records, joined by “and”; a condition that tells them apart may be missing. Identical values can stand only once.

Regarding `CCCCC[N+](CCCCC)(CCCCC)CCCCC` [TPenA, tetrapentylammonium], the Normalized currents in test [1] (0.1 µM TPenA) is reported as 1.00; in test [1] (1 µM TPenA), 1.00; in test [1] (10 µM TPenA) it was 0.89; in test [1] (100 µM TPenA) it was 0.40; in test [1] (1000 µM TPenA) it was 0.09; in test [1] (2000 µM TPenA), 0.05.

For orientation: pEC50 means the negative decadic logarithm of the EC50, by convention in mol/L. As for `CCCCC/C=C\C/C=C\CCCCCCCC(=O)O` [linoleic acid], the pEC50 in test [2] (individual recordings) was 4.31 and 4.29 and 3.53 and 3.68 and 4.04 and 4.19 and 4.36 and 4.23; in test [2] (mean), 3.97. For the same compound, the Normalized currents is given as 0.94 in test [2] (1 µM linoleic acid); 1.46 in test [2] (10 µM linoleic acid); 1.58 in test [2] (30 µM linoleic acid); 2.39 in test [2] (50 µM linoleic acid); 3.02 in test [2] (100 µM linoleic acid); 3.33 in test [2] (150 µM linoleic acid). In test [2] (200 µM linoleic acid), this compound displayed a Normalized currents of 3.40. In addition, the “Fold activation with 30.0 µM linoleic acid” value in test [2] (individual recordings) was 1.770 and 1.480 and 1.860 and 1.430 and 1.420 and 1.440; in test [2] (mean), 1.57.
